Experiments:
Assay in all cases: Kinase selectivity, Z'-LYTE
Format in all cases: biochemical
FLT3 = biological target: T1, FLT3 (Homo sapiens, UniProt P36888)
T1 construct: purchased Invitrogen (Life Technologies) SelectScreen Z'-LYTE
T1 sequence (P36888 27-993): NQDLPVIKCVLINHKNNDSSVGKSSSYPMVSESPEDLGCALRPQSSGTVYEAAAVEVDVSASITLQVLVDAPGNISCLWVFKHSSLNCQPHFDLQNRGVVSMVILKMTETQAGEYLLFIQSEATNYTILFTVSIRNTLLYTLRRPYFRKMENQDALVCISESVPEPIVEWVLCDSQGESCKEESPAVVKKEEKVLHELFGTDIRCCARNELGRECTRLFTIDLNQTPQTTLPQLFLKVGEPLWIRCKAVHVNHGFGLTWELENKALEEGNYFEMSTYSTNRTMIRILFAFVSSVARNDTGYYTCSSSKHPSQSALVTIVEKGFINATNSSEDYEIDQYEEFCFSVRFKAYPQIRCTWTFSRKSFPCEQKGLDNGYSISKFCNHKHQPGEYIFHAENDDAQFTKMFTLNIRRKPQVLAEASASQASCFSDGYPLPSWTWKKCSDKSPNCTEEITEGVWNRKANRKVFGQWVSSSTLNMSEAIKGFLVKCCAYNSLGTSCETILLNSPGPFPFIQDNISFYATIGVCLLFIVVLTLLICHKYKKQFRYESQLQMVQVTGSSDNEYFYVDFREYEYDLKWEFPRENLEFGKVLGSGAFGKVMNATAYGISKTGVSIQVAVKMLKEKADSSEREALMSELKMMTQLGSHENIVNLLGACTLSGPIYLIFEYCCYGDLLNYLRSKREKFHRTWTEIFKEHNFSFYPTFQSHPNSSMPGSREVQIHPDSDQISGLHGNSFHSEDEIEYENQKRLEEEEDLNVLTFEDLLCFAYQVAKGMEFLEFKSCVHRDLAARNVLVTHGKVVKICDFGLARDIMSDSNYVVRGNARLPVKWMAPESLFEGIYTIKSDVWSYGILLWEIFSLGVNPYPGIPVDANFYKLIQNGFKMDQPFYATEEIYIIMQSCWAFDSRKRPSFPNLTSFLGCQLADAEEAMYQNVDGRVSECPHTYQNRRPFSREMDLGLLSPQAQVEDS
Method in brief: (§1)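 Selectivity was profiled by a fluorescence-based coupled-enzyme assay in which phosphorylated and non-phosphorylated peptides differ in sensitivity to proteolytic cleavage. Recombinant kinases were used, each with an assay mixture optimized for that kinase.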

PAK7 (KIAA 1264) = biological target: T2, PAK7 (KIAA 1264) (Homo sapiens, UniProt Q9P286)
T2 construct: purchased Invitrogen (Life Technologies) SelectScreen Z'-LYTE
Method in brief: as §1

JAK1 = biological target: T3, JAK1 (Homo sapiens, UniProt P23458)
T3 construct: purchased Invitrogen (Life Technologies) SelectScreen Z'-LYTE
Method in brief: as §1

PDGFRB (PDGFR beta) = biological target: T4, PDGFRB (PDGFR beta) (Homo sapiens, UniProt P09619)
T4 construct: purchased Invitrogen (Life Technologies) SelectScreen Z'-LYTE
Method in brief: as §1

P1K3CA (p110 gamma) = biological target: T5, P1K3CA (p110 gamma) (Homo sapiens, UniProt P48736)
T5 construct: purchased Invitrogen (Life Technologies) SelectScreen Z'-LYTE
T5 sequence (P48736 whole entry): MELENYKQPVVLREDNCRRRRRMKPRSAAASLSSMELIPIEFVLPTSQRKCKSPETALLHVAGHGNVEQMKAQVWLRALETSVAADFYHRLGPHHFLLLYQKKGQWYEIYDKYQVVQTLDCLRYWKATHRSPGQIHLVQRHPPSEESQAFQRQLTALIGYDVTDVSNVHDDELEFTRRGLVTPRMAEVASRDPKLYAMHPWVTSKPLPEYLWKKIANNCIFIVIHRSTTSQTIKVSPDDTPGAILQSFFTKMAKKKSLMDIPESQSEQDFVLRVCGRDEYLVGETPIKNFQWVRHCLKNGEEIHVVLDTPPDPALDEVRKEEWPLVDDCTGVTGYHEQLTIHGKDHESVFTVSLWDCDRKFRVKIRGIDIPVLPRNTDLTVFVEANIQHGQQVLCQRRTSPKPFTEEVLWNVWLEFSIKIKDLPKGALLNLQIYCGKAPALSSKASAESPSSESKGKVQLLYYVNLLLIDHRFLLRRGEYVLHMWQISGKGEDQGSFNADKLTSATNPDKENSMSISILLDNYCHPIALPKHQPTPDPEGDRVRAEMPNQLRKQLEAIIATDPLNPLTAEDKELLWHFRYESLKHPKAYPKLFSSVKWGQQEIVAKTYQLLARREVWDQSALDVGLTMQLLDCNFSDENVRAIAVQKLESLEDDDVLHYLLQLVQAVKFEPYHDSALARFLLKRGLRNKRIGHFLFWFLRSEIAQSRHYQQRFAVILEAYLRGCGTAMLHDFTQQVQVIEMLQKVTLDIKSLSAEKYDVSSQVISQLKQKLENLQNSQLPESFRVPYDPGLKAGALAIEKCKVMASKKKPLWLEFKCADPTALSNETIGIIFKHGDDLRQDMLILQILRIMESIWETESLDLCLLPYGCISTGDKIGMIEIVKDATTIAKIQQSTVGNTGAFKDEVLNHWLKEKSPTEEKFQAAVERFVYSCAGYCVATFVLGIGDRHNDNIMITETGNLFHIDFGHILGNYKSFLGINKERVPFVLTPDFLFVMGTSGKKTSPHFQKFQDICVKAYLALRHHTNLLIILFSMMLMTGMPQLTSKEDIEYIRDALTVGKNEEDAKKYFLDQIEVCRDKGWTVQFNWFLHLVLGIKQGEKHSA
Method in brief: as §1

ERBB4 (HER4) = biological target: T6, ERBB4 (HER4) (Homo sapiens, UniProt Q15303)
T6 construct: purchased Invitrogen (Life Technologies) SelectScreen Z'-LYTE
Method in brief: as §1

CHEK2 (CHK2) = biological target: T7, CHEK2 (CHK2) (Homo sapiens, UniProt O96017)
T7 construct: purchased Invitrogen (Life Technologies) SelectScreen Z'-LYTE
Method in brief: as §1

PAK6 = biological target: T8, PAK6 (Homo sapiens, UniProt Q9NQU5)
T8 construct: purchased Invitrogen (Life Technologies) SelectScreen Z'-LYTE
Method in brief: as §1

PAK3 = biological target: T9, PAK3 (Homo sapiens, UniProt O75914)
T9 construct: purchased Invitrogen (Life Technologies) SelectScreen Z'-LYTE
T9 sequence (O75914 whole entry): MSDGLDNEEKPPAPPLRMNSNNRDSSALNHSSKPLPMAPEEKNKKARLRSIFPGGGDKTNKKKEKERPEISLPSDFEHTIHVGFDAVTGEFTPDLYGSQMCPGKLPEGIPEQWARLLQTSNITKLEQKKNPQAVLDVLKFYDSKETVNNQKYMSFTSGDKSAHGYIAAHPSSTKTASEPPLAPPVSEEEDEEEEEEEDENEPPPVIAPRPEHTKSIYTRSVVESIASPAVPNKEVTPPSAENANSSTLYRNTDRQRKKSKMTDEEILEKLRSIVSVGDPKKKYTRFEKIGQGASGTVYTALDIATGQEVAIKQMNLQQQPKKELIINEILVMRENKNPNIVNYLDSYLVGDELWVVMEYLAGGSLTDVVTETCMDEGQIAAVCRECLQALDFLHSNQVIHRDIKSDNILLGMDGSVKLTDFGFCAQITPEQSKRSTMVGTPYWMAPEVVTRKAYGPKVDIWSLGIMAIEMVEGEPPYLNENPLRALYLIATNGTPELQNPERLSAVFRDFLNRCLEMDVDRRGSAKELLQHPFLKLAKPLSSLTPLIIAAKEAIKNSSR
Method in brief: as §1

TYK2 = biological target: T10, TYK2 (Homo sapiens, UniProt P29597)
T10 construct: purchased Invitrogen (Life Technologies) SelectScreen Z'-LYTE
Method in brief: as §1

TEK (Tie2) = biological target: T11, TEK (Tie2) (Homo sapiens, UniProt Q02763)
T11 construct: purchased Invitrogen (Life Technologies) SelectScreen Z'-LYTE
T11 sequence (Q02763 23-1124): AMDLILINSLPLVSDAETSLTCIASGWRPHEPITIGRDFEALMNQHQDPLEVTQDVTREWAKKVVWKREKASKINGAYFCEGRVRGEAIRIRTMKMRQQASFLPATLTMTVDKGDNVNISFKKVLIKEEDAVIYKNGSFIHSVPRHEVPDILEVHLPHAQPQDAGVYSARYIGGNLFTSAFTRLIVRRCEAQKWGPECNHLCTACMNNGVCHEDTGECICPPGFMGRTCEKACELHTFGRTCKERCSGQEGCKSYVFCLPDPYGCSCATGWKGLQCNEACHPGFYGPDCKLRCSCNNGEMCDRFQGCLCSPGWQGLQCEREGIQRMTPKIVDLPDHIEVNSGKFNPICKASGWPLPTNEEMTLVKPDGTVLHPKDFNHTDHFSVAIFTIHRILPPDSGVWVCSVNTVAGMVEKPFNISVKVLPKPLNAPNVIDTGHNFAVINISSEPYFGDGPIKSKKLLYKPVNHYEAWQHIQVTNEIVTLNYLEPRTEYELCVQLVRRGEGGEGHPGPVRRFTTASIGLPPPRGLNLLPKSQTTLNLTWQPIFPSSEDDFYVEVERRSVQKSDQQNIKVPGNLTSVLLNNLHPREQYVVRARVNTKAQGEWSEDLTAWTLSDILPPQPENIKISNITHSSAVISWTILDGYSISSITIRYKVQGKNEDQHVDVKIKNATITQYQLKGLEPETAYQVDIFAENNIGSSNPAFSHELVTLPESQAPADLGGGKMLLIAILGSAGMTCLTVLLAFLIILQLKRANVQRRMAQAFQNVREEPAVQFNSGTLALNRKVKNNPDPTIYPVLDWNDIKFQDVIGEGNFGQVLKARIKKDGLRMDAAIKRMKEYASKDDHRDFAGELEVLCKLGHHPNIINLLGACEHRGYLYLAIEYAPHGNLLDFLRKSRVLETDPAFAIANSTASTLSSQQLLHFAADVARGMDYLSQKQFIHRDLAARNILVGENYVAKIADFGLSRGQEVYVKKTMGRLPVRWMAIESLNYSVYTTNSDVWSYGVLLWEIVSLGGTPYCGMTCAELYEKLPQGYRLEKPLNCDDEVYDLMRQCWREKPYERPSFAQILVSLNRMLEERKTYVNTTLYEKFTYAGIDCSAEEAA
Method in brief: as §1

JAK2 = biological target: T12, JAK2 (Homo sapiens, UniProt O60674)
T12 construct: purchased Invitrogen (Life Technologies) SelectScreen Z'-LYTE
Method in brief: as §1

PIM2 = biological target: T13, PIM2 (Homo sapiens, UniProt Q9P1W9)
T13 construct: purchased Invitrogen (Life Technologies) SelectScreen Z'-LYTE
T13 sequence (Q9P1W9 whole entry): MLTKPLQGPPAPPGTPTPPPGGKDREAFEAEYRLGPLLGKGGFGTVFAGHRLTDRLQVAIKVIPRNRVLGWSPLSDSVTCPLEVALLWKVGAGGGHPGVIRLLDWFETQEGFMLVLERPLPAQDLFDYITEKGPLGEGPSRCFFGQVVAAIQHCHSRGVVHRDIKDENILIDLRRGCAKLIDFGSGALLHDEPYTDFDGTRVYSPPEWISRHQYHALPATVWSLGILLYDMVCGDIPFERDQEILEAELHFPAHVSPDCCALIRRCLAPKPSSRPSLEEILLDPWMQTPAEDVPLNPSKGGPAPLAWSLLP
Method in brief: as §1

RP88KA8 (RSK2) = biological target: T14, RP88KA8 (RSK2) (Homo sapiens, UniProt P51812)
T14 construct: purchased Invitrogen (Life Technologies) SelectScreen Z'-LYTE
Method in brief: as §1

G3K3B (G3K3 beta) = biological target: T15, G3K3B (G3K3 beta) (Homo sapiens, UniProt P49841)
T15 construct: purchased Invitrogen (Life Technologies) SelectScreen Z'-LYTE
Method in brief: as §1

FLT1 (VEGFR1) = biological target: T16, FLT1 (VEGFR1) (Homo sapiens, UniProt P17948)
T16 construct: purchased Invitrogen (Life Technologies) SelectScreen Z'-LYTE
Method in brief: as §1

CDK1/cyclin B = biological target: T17, CDK1/cyclin B (Homo sapiens, UniProt P06493)
T17 construct: purchased Invitrogen (Life Technologies) SelectScreen Z'-LYTE
Method in brief: as §1

BTK = biological target: T18, BTK (Homo sapiens, UniProt Q06187)
T18 construct: purchased Invitrogen (Life Technologies) SelectScreen Z'-LYTE
T18 sequence (Q06187 whole entry): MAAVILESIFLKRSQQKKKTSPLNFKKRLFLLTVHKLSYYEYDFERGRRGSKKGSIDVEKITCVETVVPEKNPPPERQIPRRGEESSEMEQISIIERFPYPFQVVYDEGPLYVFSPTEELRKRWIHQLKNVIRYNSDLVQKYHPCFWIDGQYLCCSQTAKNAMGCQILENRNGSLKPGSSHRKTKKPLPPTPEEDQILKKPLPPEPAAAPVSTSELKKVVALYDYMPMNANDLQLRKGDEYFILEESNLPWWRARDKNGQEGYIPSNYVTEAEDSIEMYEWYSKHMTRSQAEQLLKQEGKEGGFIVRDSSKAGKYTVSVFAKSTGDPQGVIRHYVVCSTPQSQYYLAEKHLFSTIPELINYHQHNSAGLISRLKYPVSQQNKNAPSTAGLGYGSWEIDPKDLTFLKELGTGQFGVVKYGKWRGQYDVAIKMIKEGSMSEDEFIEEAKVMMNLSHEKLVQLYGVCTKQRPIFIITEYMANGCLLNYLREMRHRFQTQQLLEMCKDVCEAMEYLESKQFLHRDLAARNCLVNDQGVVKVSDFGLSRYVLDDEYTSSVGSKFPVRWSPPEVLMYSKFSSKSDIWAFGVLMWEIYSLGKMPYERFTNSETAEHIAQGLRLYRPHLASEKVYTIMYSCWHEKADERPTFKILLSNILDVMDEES
Method in brief: as §1

PDGFRA (PDGFR alpha) = biological target: T19, PDGFRA (PDGFR alpha) (Homo sapiens, UniProt P16234)
T19 construct: purchased Invitrogen (Life Technologies) SelectScreen Z'-LYTE
T19 sequence (P16234 24-1089): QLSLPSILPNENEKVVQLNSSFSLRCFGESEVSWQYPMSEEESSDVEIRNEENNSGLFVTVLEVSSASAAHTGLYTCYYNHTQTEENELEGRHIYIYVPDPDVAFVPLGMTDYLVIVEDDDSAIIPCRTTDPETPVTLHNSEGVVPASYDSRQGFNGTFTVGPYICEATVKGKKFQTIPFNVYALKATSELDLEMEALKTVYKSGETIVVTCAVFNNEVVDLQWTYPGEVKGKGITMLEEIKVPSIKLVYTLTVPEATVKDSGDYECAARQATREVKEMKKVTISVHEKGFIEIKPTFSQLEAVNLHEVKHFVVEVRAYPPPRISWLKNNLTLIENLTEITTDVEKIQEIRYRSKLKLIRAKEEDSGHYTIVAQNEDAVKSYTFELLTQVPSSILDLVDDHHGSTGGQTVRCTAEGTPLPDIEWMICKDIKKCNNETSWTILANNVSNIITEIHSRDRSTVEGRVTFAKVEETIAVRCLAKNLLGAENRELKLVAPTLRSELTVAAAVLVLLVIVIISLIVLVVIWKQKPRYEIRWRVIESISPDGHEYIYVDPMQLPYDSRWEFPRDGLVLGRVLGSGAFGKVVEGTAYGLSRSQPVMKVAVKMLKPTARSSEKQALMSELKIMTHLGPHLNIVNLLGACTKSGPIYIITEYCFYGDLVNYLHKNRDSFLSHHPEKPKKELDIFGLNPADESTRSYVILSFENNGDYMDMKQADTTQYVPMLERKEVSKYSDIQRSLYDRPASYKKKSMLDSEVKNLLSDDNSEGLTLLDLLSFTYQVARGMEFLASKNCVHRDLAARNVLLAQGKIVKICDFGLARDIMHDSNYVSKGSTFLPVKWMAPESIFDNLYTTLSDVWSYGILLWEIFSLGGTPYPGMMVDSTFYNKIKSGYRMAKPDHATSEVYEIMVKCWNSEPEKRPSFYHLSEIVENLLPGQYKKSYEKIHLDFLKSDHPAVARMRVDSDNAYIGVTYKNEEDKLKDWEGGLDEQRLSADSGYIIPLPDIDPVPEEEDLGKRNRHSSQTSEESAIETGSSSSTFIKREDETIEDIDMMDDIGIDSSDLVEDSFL
Method in brief: as §1

PDK1 Direct = biological target: T20, PDK1 Direct (Homo sapiens, UniProt O15530)
T20 construct: purchased Invitrogen (Life Technologies) SelectScreen Z'-LYTE
T20 sequence (O15530 1-556): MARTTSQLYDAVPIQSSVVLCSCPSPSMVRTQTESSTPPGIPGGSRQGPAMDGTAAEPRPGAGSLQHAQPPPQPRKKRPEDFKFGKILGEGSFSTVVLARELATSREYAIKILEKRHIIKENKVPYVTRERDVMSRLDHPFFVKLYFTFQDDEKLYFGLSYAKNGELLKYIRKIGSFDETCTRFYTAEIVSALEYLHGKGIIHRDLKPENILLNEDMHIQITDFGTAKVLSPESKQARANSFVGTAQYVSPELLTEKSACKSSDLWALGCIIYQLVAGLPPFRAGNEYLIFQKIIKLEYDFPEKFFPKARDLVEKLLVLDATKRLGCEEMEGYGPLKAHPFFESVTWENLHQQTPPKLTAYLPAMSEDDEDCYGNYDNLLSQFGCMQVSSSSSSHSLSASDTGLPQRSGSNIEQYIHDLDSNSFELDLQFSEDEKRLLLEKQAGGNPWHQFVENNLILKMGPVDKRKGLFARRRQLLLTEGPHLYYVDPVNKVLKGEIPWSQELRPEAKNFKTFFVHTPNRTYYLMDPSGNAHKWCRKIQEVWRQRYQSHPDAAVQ
Method in brief: as §1

CCn1c(=O)c(-c2ccc(-c3noc(C)n3)cc2Cl)cc2cnc(Nc3ccc(C4CCN(C)CC4)cc3)nc21 [Frax716]
% inhibition of activity (FLT3): 92% | % inhibition of activity (PAK7 (KIAA 1264)): 17% | % inhibition of activity (JAK1): 1% | % inhibition of activity (PDGFRB (PDGFR beta)): 82% | % inhibition of activity (P1K3CA (p110 gamma)): 0% | % inhibition of activity (ERBB4 (HER4)): 77% | % inhibition of activity (CHEK2 (CHK2)): 17% | % inhibition of activity (PAK6): 17% | % inhibition of activity (PAK3): 90% | % inhibition of activity (TYK2): 54% | % inhibition of activity (TEK (Tie2)): 98% | % inhibition of activity (JAK2): 7% | % inhibition of activity (PIM2): 1% | % inhibition of activity (RP88KA8 (RSK2)): 6% | % inhibition of activity (G3K3B (G3K3 beta)): 14% | % inhibition of activity (FLT1 (VEGFR1)): 37% | % inhibition of activity (CDK1/cyclin B): 3% | % inhibition of activity (BTK): 87% | % inhibition of activity (PDGFRA (PDGFR alpha)): 95% | % inhibition of activity (PDK1 Direct): 15%

CCn1c(=O)c(-c2ccc(-c3cncc(C)n3)cc2Cl)cc2cnc(NCCC3CCN(C)CC3)nc21 [Frax1036]
% inhibition of activity (FLT3): 10% | % inhibition of activity (PAK7 (KIAA 1264)): 9% | % inhibition of activity (JAK1): 1% | % inhibition of activity (PDGFRB (PDGFR beta)): 83% | % inhibition of activity (P1K3CA (p110 gamma)): 0% | % inhibition of activity (ERBB4 (HER4)): 0% | % inhibition of activity (CHEK2 (CHK2)): 7% | % inhibition of activity (PAK6): 27% | % inhibition of activity (PAK3): 106% | % inhibition of activity (TYK2): 6% | % inhibition of activity (TEK (Tie2)): 2% | % inhibition of activity (JAK2): 0% | % inhibition of activity (PIM2): 3% | % inhibition of activity (RP88KA8 (RSK2)): 11% | % inhibition of activity (G3K3B (G3K3 beta)): 0% | % inhibition of activity (FLT1 (VEGFR1)): 14% | % inhibition of activity (CDK1/cyclin B): 6% | % inhibition of activity (BTK): 5% | % inhibition of activity (PDGFRA (PDGFR alpha)): 2% | % inhibition of activity (PDK1 Direct): 0%

Cc1nc(Nc2[nH]nc3c2CN(C(=O)N[C@H](CN(C)C)c2ccccc2)C3(C)C)c2sccc2n1 [PF3758309, reference compound]
% inhibition of activity (FLT3): 78% | % inhibition of activity (PAK7 (KIAA 1264)): 99% | % inhibition of activity (JAK1): 2% | % inhibition of activity (PDGFRB (PDGFR beta)): 14% | % inhibition of activity (P1K3CA (p110 gamma)): 0% | % inhibition of activity (ERBB4 (HER4)): 2% | % inhibition of activity (CHEK2 (CHK2)): 99% | % inhibition of activity (PAK6): 98% | % inhibition of activity (PAK3): 100% | % inhibition of activity (TYK2): 14% | % inhibition of activity (TEK (Tie2)): 0% | % inhibition of activity (JAK2): 14% | % inhibition of activity (PIM2): 4% | % inhibition of activity (RP88KA8 (RSK2)): 100% | % inhibition of activity (G3K3B (G3K3 beta)): 77% | % inhibition of activity (FLT1 (VEGFR1)): 5% | % inhibition of activity (CDK1/cyclin B): 12% | % inhibition of activity (BTK): 74% | % inhibition of activity (PDGFRA (PDGFR alpha)): 2% | % inhibition of activity (PDK1 Direct): 67%

From PMC4385830, “Group I Paks as therapeutic targets in NF2-deficient meningioma” (Oncotarget, 2015)
